In patent US11999794B2, “Human mesothelin chimeric antigen receptors and uses thereof” (Novartis AG, priority 2013, dated 2024):

B1: M5: human anti-mesothelin scFv SEQ ID NO: 43; full CAR SEQ ID NO: 67 (protein)
scFv: QVQLVQSGAEVEKPGASVKVSCKASGYTFTDYYMHWVRQAPGQGLEWMGWINPNSGGTNYAQKFQGRVTMTRDTSISTAYMELSRLRSDDTAVYYCASGWDFDYWGQGTLVTVSSGGGGSGGGGSGGGGSGGGGSDIVMTQSPSSLSASVGDRVTITCRASQSIRYYLSWYQQKPGKAPKLLIYTASILQNGVPSRFSGSGSGTDFTLTISSLQPEDFATYYCLQTYTTPDFGPGTKVEIK

Experiments:
[1] = system: H1N1 A/California/07/2009, H3N2 A/Victoria/210/2009, B/Brisbane/60/2008; assay: Serologic response to 2012 seasonal influenza vaccine (HI GMT ratio, primary endpoint); format: in vivo, human; conditions: for primary endpoint (≥1.2-fold GMT increase relative to placebo in 2 of 3 strains): ITT population
Protocol: From December 2011 to April 2012, 218 elderly volunteers were enrolled in a randomized, observer-blind, placebo-controlled trial. The subjects were randomized to treatment arms using a validated automated randomization system with a ratio of RAD001 to placebo of 5:2 in each treatment arm. The treatment arms were: • RAD001 0.5 mg daily or placebo • RAD001 5 mg weekly or placebo • RAD001 20 mg weekly or placebo
The trial was observer-blind because the placebo in the RAD001 0.5 mg daily and 20 mg weekly cohorts differed slightly from the RAD001 tablets in those cohorts. […] The treatment duration for all cohorts was 6 weeks during which time subjects underwent safety evaluations in the clinic every 2 weeks. After subjects had been dosed for 4 weeks, RAD001 steady state levels were measured pre-dose and at one hour post dose. After completing the 6 week course of study drug, subjects were given a 2 week drug free break to reverse any possible RAD001-induced immunosuppression, and then were given a 2012 seasonal influenza vaccination (Agrippal®, Novartis Vaccines and Diagnostics, Siena, Italy) containing the strains H1N1 A/California/07/2009, H3N2 A/Victoria/210/2009, B/Brisbane/60/2008. Four weeks after influenza vaccination, subjects had serum collected for influenza titer measurements. Antibody titers to the 3 influenza vaccine strains as well as to 2 heterologous strains (A/H1N1 strain A/New Jersey/8/76 and A/H3N2 strain A/Victoria/361/11) were measured by standard hemagglutination inhibition assay (Kendal, A P et al. (1982) Concepts and procedures for laboratory-based influenza surveillance. Atlanta: Centers for Disease Control and Prevention B17-B35). Levels of IgG and IgM specific for the A/H1N1/California/07/2009 were measured in serum samples taken before and 4 weeks after influenza vaccination as described previously (Spensieri, F. et al. (2013) Proc. Natl. Acad. Sci. USA 110:14330-14335). Results were expressed as fluorescence intensity.
The primary analysis of geometric mean titer ratios was done using a normal Bayesian regression model with non-informative priors. This model was fitted to each antibody titer on the log scale. The primary outcome in each model was the Day 84 measurement. The Day 63 measurement was included in the outcome vector. The model fitted using SAS 9.2 proc mixed with the prior statement. The covariance structure of the matrix was considered as unstructured (option type=UN). A flat prior was used. For the secondary analysis of seroconversion rates, logistic regression was used.
The ability of RAD001 to improve immune function in elderly volunteers was evaluated by measuring the serologic response to the 2012 seasonal influenza vaccine. […]

hMSLN296-588 = molecular target: T1, hMSLN296-588 (Homo sapiens, UniProt Q13421, N388Q/N488Q/N515Q); assay: Hydrogen-deuterium exchange mass spectrometry epitope mapping; format: binding; conditions: amino acid position 297 to 464
T1 construct: secretion signal […]; made in house; host or cells: Expi293 (alone, or co-expressed with scFv M5)
Excerpt: Hydrogen-deuterium exchange (HDx) in combination with mass spectrometry (MS) (Woods V L, Hamuro Y (2001) High Resolution, High-Throughput Amide Deuterium Exchange-Mass Spectrometry (DXMS) Determination of Protein Binding Site Structure and Dynamics: Utility in Pharmaceutical Design. J. Cell. Biochem. Supp.; 84(37): 89-98.) was used to map the putative binding site of scFv antibodies M5 and SS1 on human mesothelin(296-588), referred to herein as hMSLN296-588 (SEQ ID No 278). In HDx, exchangeable amide hydrogens of proteins are replaced by deuterium. This process is sensitive to protein structure/dynamics and solvent accessibility and, therefore, able to report on locations that undergo a decrease in deuterium uptake upon ligand binding.
HDx/MS experiments were performed using methods similar to those described in the literature (Chalmers M J, Busby S A, Pascal B D, He Y, Hendrickson C L, Marshall A G, Griffin P R (2006) Probing protein ligand interactions by automated hydrogen/deuterium exchange mass spectrometry. Anal. Chem.; 78(4): 1005-1014.Chalmers, 2006). The experiments were performed on a Waters HDx/MS platform, which included a LEAP autosampler, nanoACQUITY UPLC, and Synapt G2 mass spectrometer. […]

T1 sequence (Q13421 with tags, fused parts or gaps N388Q/N488Q/N515Q): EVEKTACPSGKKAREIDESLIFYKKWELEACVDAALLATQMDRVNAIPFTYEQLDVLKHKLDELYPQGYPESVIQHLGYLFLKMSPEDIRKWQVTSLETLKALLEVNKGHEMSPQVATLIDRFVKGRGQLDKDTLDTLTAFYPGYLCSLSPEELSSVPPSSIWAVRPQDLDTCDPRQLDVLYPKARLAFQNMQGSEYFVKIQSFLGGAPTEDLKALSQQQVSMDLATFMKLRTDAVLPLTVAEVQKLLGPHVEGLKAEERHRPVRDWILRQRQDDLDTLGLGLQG

| Molecule | primary endpoint (≥1.2-fold GMT increase relative to placebo in 2 of 3 strains) ([1]; 0.5 mg daily or 5 mg weekly) | primary endpoint (≥1.2-fold GMT increase relative to placebo in 2 of 3 strains) ([1]; 20 mg weekly) | increase in titers in subjects with low baseline influenza titers (≤1:40) ([1]; compared with the ITT population) | RAD001 concentration versus increase in titer ([1]; concentration 1 hour post dose after 4 weeks) | mesothelin peptides significantly protected from deuterium uptake (hMSLN296-588) |
| --- | --- | --- | --- | --- | --- |
| CO[C@H]1C[C@@H]2CC[C@@H](C)[C@@](O)(O2)C(=O)C(=O)N2CCCC[C@H]2C(=O)O[C@H]([C@H](C)C[C@@H]2CC[C@@H](OCCO)[C@H](OC)C2)CC(=O)[C@H](C)/C=C(\C)[C@@H](O)[C@@H](OC)C(=O)[C@H](C)C[C@H](C)/C=C/C=C/C=C/1C [RAD001, (1R,9S,12S,15R,16E,18R,19R,21R,23 S,24E,26E,28E,30S,32S,35R)-1,18-dihydroxy-12-{(1R)-2-[(1 S,3R,4R)-4-(2-hydroxyethoxy)-3-methoxycyclohexyl]-1-methylethyl}-19,30-dimethoxy-15,17,21,23,29,35-hexamethyl-11,36-dioxa-4-aza-tricyclo[30.3.1.04,9]hexatriaconta-16,24,26,28-tetraene-2,3,10,14,20-pentaone] | met the GMT primary endpoint | but not higher dose (20 mg weekly) cohort met the primary endpoint | greater RAD001-associated increase in titers | inverse exposure/response relationship |  |
| B1 |  |  |  |  | no protection |
